Values quoted from earlier work as cited in US11173114B1, “Method and system for manufacturing and oral soluble films and oral soluble films made by thereby” (NOVA Thin Film Pharmaceuticals LLC, priority 2020, dated 2021).
Where two headings read alike, the source gives them in different places.

Q: Which results are given for `O` [Water]?
A: Surface tension (head printed □) (25 ° C.): 71.97 mN/m; Surface tension (head printed □) (40 ° C.): 69.56 mN/m; Surface tension (head printed □) (80 ° C.): 62.6 mN/m
